Measurements taken from patent publication US12390464B2, “Treatment of EGFR mutant-related cancers using a combination of EGFR and CDK4/6 inhibitors” (BETA PHARMA, INC., priority 2019, dated 2025).
Where “and” joins values, the source holds several entries; their conditions need not be identical. Identical values can stand only once.

Tests used:
[1] = test system: kinase domain of the T790M double mutant; details: cited from earlier work
[2] = test system: HCC827 tumors (delE746-A750 activating mutation); test: Antitumor activity in the HCC827 mouse xenograft model; format: in vivo; details: oral QD; for Tumor Weight: tumors harvested day 35, mean ± SD, n = 8; for Tumor Weight Inhibition Rate: tumors harvested day 35
Description: Cell Culture and Implantation. HCC827 cells were cultured in a CO2 incubator in culture media containing modified RPMI (Hyclone, Cat: SH30809.01); 10% fetal bovine serum (Gibco, Cat: 10099-141); 100 U/ml penicillin and 100 μg/ml streptomycin (Hyclone, Cat: SV30010). Cells were digested with 0.25% trypsin (Hyclone, Cat: SH30042.01) and subcultured every four days. When the required cells was in the logarithmic growth phase, the cell counts were collected and the tumors were subcutaneously implanted in Balb/c nude female mice (14-19 g) at 1×10^7/0.2 mL/mouse (50% Matrigel CORNING, Cat: 354234) in the right back side of each mouse. 8 days after implantation, 56 mice with tumor volume of 132-289 mm^3 were selected and randomly divided into 7 groups according to tumor volume and body weight.
Test Sample Preparation Formulation and Administration. A stock solution of 1 as the methanesulfonate salt was prepared at 0.3 mg/mL in normal saline. A stock solution of 2 as the hydrochloride salt was prepared 2.0 mg/mL in sterile water. The vehicle control was a solution of 0.5% sodium carboxymethyl cellulose in sterile water. All stock solutions were stored at 2-8° C. and prepared fresh on a weekly basis. The stock solutions were administered orally either individually or in combination at the indicated salt dosages depicted in FIG. 1 and Table 2 once a day for 14 days. Dosing was suspended when body weight lost more than 15%.
Tumor Volume Determination and Data Analysis. The tumor volumes were determined twice per week by measuring the length and width of each tumor with a Vernier caliper and calculating the tumor volume. All tumors were harvested on day 35 and weighed. The Tumor Weight Inhibition Rate (IRTW%) was calculated via the equation: IRTW%=(1−(TW(treated)/TW(control)))×100%, where TW is defined as tumor weight. Histograms were generated using Prism GraphPad (mean±S.E.M.), and T analysis was used for statistical analysis. A p value less than 0.05 represents a significant difference between groups and a p value less than 0.01 represents a highly significant difference between groups.

[3] = test system: MCF7 human breast cancer cell line; details: cited from earlier work

| SMILES | inhibition of EGFR T790M double mutant kinase domain [1] | Tumor Weight ([2]; 1 at 3 mg/kg alone) [g] | Tumor Weight Inhibition Rate ([2]; 1 at 3 mg/kg alone, 3 mg/kg) | Tumor Weight Inhibition Rate ([2]; 2 at 20 mg/kg alone) [%] | Tumor Weight ([2]; 2 at 20 mg/kg alone) [g] | in vitro activity in MCF7 cell line [3] |
| --- | --- | --- | --- | --- | --- | --- |
| C=CC(=O)Nc1cc(Nc2nccc(-c3cn(C)c4ccccc34)n2)c(OC)cc1OCCN(C)C [Compound 1, N-[2-[2-(dimethylamino)ethoxy]-4-methoxy-5-[[4-(1-methyl-1H-indol-3-yl)-2-pyrimidinyl]amino]phenyl]-2-propenamide] | effectively inhibits | 0.1423 ± 0.1152 | 83.1% and 83.1^f % | – | – | – |
| CCN1CCN(Cc2ccc(Nc3ncc(F)c(-c4ccc5nn(C)c(C(C)C)c5c4)n3)nc2)CC1 [Compound 2, N-[5-[(4-ethyl-1-piperazinyl)methyl]-2-pyridinyl]-5-fluoro-4-[2-methyl-3-(1-methylethyl)-2H-indazol-5-yl]-2-pyrimidinamine] | – | – | – | 30.2 | 0.5864 ± 0.2235 | potent in vitro activity |
